The values below come from ChEMBL document CHEMBL5104093, “A comprehensive review on β-lapachone: Mechanisms, structural modifications, and therapeutic potentials” (Eur J Med Chem, 2021).

Converted amounts (≈) assume the structure as drawn.

Series [1] has as its system HCT-116. Kind of series: Cytotoxicity against human HCT-116 cells assessed as reduction in cell viability incubated for 72 hrs by MTT assay. The format is functional, cell-based. The following applies: HCT-116, 72 h. Background: Tetrazolium assays rely on reduction of a dye to a coloured formazan, in cell work by metabolically active cells.
Series [2] has as its system HL-60. Put plainly: Cytotoxicity against human HL-60 cells assessed as reduction in cell viability incubated for 72 hrs by MTT assay. To be noted: HL-60, 72 h. Format: functional, cell-based.
The test system of a further series is SF-295. Put plainly: Cytotoxicity against human SF-295 cells assessed as reduction in cell viability incubated for 72 hrs by MTT assay. The format is functional, cell-based. The following applies: SF-295, 72 h.
For the next series, the system named is NCI-H1975. Kind of series: Cytotoxicity against human NCI-H1975 cells assessed as reduction in cell viability incubated for 72 hrs by MTT assay. The format is functional, cell-based. To be noted: NCI-H1975, 72 h.
For series [3], the system named is HL-60. Put plainly: Cytotoxicity against human HL-60 cells assessed as reduction in cell viability incubated for 72 hrs by alamar blue assay. Format: functional, cell-based. To be noted: HL-60, 72 h.
In the next series the test system is MCF7. Put plainly: Cytotoxicity against human MCF7 cells assessed as reduction in cell viability incubated for 72 hrs by MTT assay. Format: functional, cell-based. The following applies: MCF7, 72 h.
The test system of a further series is PC-3. Put plainly: Cytotoxicity against human PC-3 cells assessed as reduction in cell viability incubated for 72 hrs by MTT assay. The format is functional, cell-based. The following applies: PC-3, 72 h.
Another series concerns MX1. Put plainly: Cytotoxicity against human MX1 cells assessed as reduction in cell viability incubated for 72 hrs by MTT assay. The format is functional, cell-based. To be noted: MX1, 72 h.
The next series concerns OVCAR-8. Kind of series: Cytotoxicity against human OVCAR-8 cells assessed as reduction in cell viability incubated for 72 hrs by MTT assay. Format: functional, cell-based. The following applies: OVCAR-8, 72 h.
The test system of another series is MDA-MB-435. Kind of series: Cytotoxicity against human MDA-MB-435 cells assessed as reduction in cell viability incubated for 72 hrs by MTT assay. To be noted: MDA-MB-435, 72 h. The format is functional, cell-based.
Another series concerns HCT-8. Put plainly: Cytotoxicity against human HCT-8 cells assessed as reduction in cell viability incubated for 72 hrs by MTT assay. Format: functional, cell-based. The following applies: HCT-8, 72 h.
For a further series, the system named is MOLT-4. Kind of series: Cytotoxicity against human MOLT-4 cells assessed as reduction in cell viability incubated for 72 hrs by MTT assay. To be noted: MOLT-4, 72 h. Format: functional, cell-based.
A further series relates to K562. Kind of series: Cytotoxicity against human K562 cells assessed as reduction in cell viability incubated for 72 hrs by MTT assay. To be noted: K562, 72 h. Format: functional, cell-based.
For another series, the system named is DU-145. Kind of series: Cytotoxicity against human DU-145 cells assessed as reduction in cell viability incubated for 72 hrs by MTT assay. Format: functional, cell-based. To be noted: DU-145, 72 h.
In a further series the test system is Hs-578T. Kind of series: Cytotoxicity against human Hs-578T cells assessed as reduction in cell viability incubated for 72 hrs by MTT assay. Format: functional, cell-based.
Another series concerns CCRF-CEM. Kind of series: Cytotoxicity against human CEM cells assessed as reduction in cell viability incubated for 72 hrs by MTT assay. Format: functional, cell-based.
The test system of a further series is SW-620. Kind of series: Cytotoxicity against human SW-620 cells assessed as reduction in cell viability incubated for 72 hrs by MTT assay. The following applies: SW-620, 72 h. Format: functional, cell-based.
The test system of the next series is COLO 205. Put plainly: Cytotoxicity against human COLO 205 cells assessed as reduction in cell viability incubated for 72 hrs by MTT assay. The following applies: COLO 205, 72 h. Format: functional, cell-based.
In another series the test system is UACC-62. Kind of series: Cytotoxicity against human UACC-62 cells assessed as reduction in cell viability incubated for 72 hrs by MTT assay. The format is functional, cell-based. To be noted: UACC-62, 72 h.
The subject of another series is MDA-MB-231. Put plainly: Cytotoxicity against human MDA-MB-231 cells assessed as reduction in cell viability incubated for 72 hrs by MTT assay. The format is functional, cell-based. To be noted: MDA-MB-231, 72 h.
The next series relates to HCT-15. Kind of series: Cytotoxicity against human HCT-15 cells assessed as reduction in cell viability incubated for 72 hrs by MTT assay. Format: functional, cell-based. The following applies: HCT-15, 72 h.
A further series relates to NCI-H358. Kind of series: Cytotoxicity against human NCI-H358 cells assessed as reduction in cell viability incubated for 72 hrs by MTT assay. Format: functional, cell-based. The following applies: NCI-H358, 72 h.
In series [4] the test system is Staphylococcus haemolyticus. Kind of series: Antibacterial activity against Methicillin-resistant Staphylococcus haemolyticus clinical isolates assessed as bacterial growth inhibition incubated for 24 hrs by Mueller-Hinton broth based assay. The format is functional.
Series [5] concerns Staphylococcus epidermidis. Kind of series: Antibacterial activity against Methicillin-resistant Staphylococcus epidermidis clinical isolates assessed as bacterial growth inhibition incubated for 24 hrs by Mueller-Hinton broth based assay. The format is functional.
Series [6] concerns Staphylococcus aureus. Put plainly: Antibacterial activity against Methicillin-resistant Staphylococcus aureus ATCC 33591 assessed as bacterial growth inhibition incubated for 24 hrs by Mueller-Hinton broth based assay. Format: functional.
For series [7], the system named is Staphylococcus aureus. Kind of series: Antibacterial activity against Methicillin-resistant Staphylococcus aureus ATCC 29213 assessed as bacterial growth inhibition incubated for 24 hrs by Mueller-Hinton broth based assay. Format: functional.
The nature of series [8]: Cytotoxicity against African green monkey BSC40 cells assessed as viable cells incubated for 24 hrs by Neutral red dye based spectrophotometer analysis. The format is toxicity, cell-based. The following applies: chlorocebus aethiops, bsc40, 24 h.
The subject of another series is Plasmodium berghei. Put plainly: Antiplasmodial activity against Plasmodium berghei infected in Swiss mouse assessed as reduction in parasite growth at 200 mg/kg, sc administered for 7 days. The format is functional. To be noted: 168 h, time 7 day.
A short description of series [9]: Selectivity index, ratio of IC50 for human PBMC cells to IC50 for human HL-60 cells. The following applies: PBMC cells versus HL-60 cells, read-out: Ratio IC50. The format is toxicity.
A short description of series [10]: Clearance in human. Format: ADME.
A short description of series [11]: Volume of distribution at steady state in human. The format is ADME.
A short description of series [12]: Elimination half life in human at 1.5 mg/kg, iv. Format: ADME, organism-based. To be noted: in vivo, read-out: beta t1/2 (converted).
Series [13] in a line: Oral bioavailability in human at 40 mg/kg. Format: ADME, organism-based. To be noted: in vivo.
Another series deals with Trypanosoma cruzi. Put plainly: Antitrypanosomal activity against bloodstream form of Trypanosoma cruzi Y trypomastigotes infected in albino mouse assessed as reduction in viable parasite in blood incubated for 24 hrs by Neubauer counting chamber method. The format is functional, organism-based.
Series [14] deals with HepG2. Kind of series: Cytotoxicity against human HepG2 cells assessed as reduction in cell viability incubated for 48 hrs by MTT assay. The format is functional, cell-based. To be noted: HepG2, 48 h.
For series [15], the system named is HCT-116. Kind of series: Cytotoxicity against human HCT-116 cells assessed as reduction in cell viability incubated for 48 hrs by MTT assay. The format is functional, cell-based. To be noted: HCT-116, 48 h.
For series [16], the system named is HepG2. Kind of series: Cytotoxicity against human HepG2 cells assessed as reduction in cell viability incubated for 72 hrs by MTT assay. The format is functional, cell-based. The following applies: HepG2, 72 h.
The nature of series [17]: Selectivity index, ratio of IC50 for human L02 cells to IC50 for human HepG2 cells. The format is toxicity. To be noted: L02 cells versus HepG2 cells, read-out: Ratio IC50.

The IC50 is the concentration that inhibits the measured activity by half. Take `CC1(C)CCC2=C(O1)c1ccccc1/C(=N/O)C2=O`: the IC50 amounted to 2620 nM in the series with HCT-116 [1], 3840 nM with HL-60 [2], 3470 nM with SF-295 and 2620 nM with NCI-H1975.

Consider `CC1(C)OC2=C(C(=O)C(=O)c3ccccc32)C1n1cc(-c2ccc(Nc3ccccn3)c3nsnc23)nn1` (stereo not drawn), for which the IC50 in the series with HL-60 [3], in the series with MCF7, in the series with PC-3, in the series with SF-295, with MX1 and in the series on OVCAR-8 was 480 nM in each case. The IC50 in the series with MDA-MB-435, in the series on HCT-8, in the series with MOLT-4, with K562, in the series with DU-145 and in the series with Hs-578T was 480 nM in each case. Moreover, the IC50 in the series on CCRF-CEM, in the series with SW-620, in the series with COLO 205, with UACC-62, with MDA-MB-231 and with HCT-15 was 480 nM each time. For the same compound, in the series on NCI-H358, the IC50 stood at 480 nM.

Usually MBC stands for the lowest tested concentration that kills the bacteria rather than only halting them. Usually MIC stands for the lowest concentration found to suppress growth. With `CC1(C)OC2=C(C(=O)C(=O)c3ccccc32)C1O` (stereo not drawn), the MBC (in series [4]; in series [5]; with Staphylococcus aureus [6]; with Staphylococcus aureus [7]) was above 512 µg/mL throughout. Also, the MIC (in series [4]; in [5]; in the series with Staphylococcus aureus [6]; with Staphylococcus aureus [7]) was 4 µg/mL (≈ 16.4 µM) throughout. The MTC in [8] turned out to be 2 µg/mL.

Broadly, the inhibition in vivo is the percentage by which the read-out fell short of the control. Consider `CC1(C)Oc2c(c3nc4ccccc4nc3c3ccccc23)CC1S(=O)(=O)O` (stereo not drawn), for which, in the series on Plasmodium berghei, the inhibition in vivo at 200 mg/kg was 98%.

As a reminder, the bioavailability is the share of a dose that reaches the circulation, judged against a reference dose that is usually intravenous. For the compound `CC1(C)CCC2=C(O1)c1ccccc1C(=O)C2=O` [LAPACHONE], in [9], the selectivity ratio turned out to be 827. In [10], the CL worked out at 114 L/hr/m2. Further, in [11], the Vdss worked out at 490 L/m2. For the same compound, in series [12], the half-life was 2.45 h. In series [13], this compound yielded a bioavailability of 15.5%. The IC50 in the series on Trypanosoma cruzi was determined as 392000 nM.

Take `COc1cc(OC)cc(C2C3=C(N=C4N=NNN42)c2ccccc2C(=O)C3=O)c1` (stereo not drawn): the values for the IC50 with HepG2 [14] and with HCT-116 [15] were 1180 nM and 220 nM, respectively.

As for `O=C1C(=O)c2ccccc2C2=C1C1(C(=O)Nc3ccc(F)cc31)N1NN=NC1=N2` (stereo not drawn), the IC50 in the series with HepG2 [16] came out at 2860 nM. Besides, the selectivity ratio in series [17] was 20.6.
